For 18 compounds, IC50, EC50 and Activity results are on record in ChEMBL document CHEMBL1221352, “Synthesis and biological activity of flavanone derivatives” (Bioorg Med Chem Lett, 2010).

Structures are written as SMILES. pEC50, pIC50: −log10 of the molar value.

The nature of experiment [1]: Inhibition of protein tyrosin kinase. Particulars: for pIC50: read-out: IC50; call rule not given here.
Another experiment relates to HUVEC. Kind of experiment: Cytoprotectant activity against H2O2-induced injury in HUVEC cells. The format is functional, cell-based, Homo sapiens. Particulars: for EC50: huvec; for pEC50: Homo sapiens, HUVEC, read-out: EC50.
Experiment [2] can be described thus: Antivegetative activity against rat VSMC. It is filed as functional, cell-based. Particulars: for pIC50: read-out: IC50.
A further experiment has as its system HL-60. Kind of experiment: Antitumor activity against human HL60 cells. It is filed as functional. The arrangement: concentration or dose not given beside the values.
A further experiment relates to BGC-823. Kind of experiment: Antitumor activity against human BGC823 cells. It is filed as functional. The arrangement: concentration or dose not given beside the values.
The test system of a further experiment is KB. Briefly: Antitumor activity against human KB cells. It is filed as functional. Also on record: concentration or dose not given beside the values.
For another experiment, the system named is Bel-7402. Kind of experiment: Antitumor activity against human Bel7402 cells. It is filed as functional. The arrangement: concentration or dose not given beside the values.

Consider `COc1ccc(C2CC(=O)c3c(O)c(C)c(O)c(C)c3O2)c(OC)c1` (centres undefined), for which the IC50 result in experiment [1] and in experiment [2] was “Not Active” in each case. Moreover, in the experiment on HUVEC, the EC50 entry is “Not Active”.

Take `Cc1c(O)c(C)c2c(c1O)C(=O)CC(c1c[nH]c3ccccc13)O2` (centres undefined): the Activity in the experiment on HL-60 turned out to be 11.39%; in the experiment with BGC-823, 1.67%; in the experiment with KB, 10.47%; in the experiment on Bel-7402, 6.45%. The IC50 entry in experiment [1] and in experiment [2] was “Not Active” each time. Besides, in the experiment with HUVEC, the pEC50 – broadly, the negative decadic logarithm of the EC50, by convention in mol/L – is below 5.00.

As for `Cc1c(O)c(C)c2c(c1O)C(=O)C[C@@H](c1ccccc1)O2` [DEMETHOXYMATTEUCINOL], the values for the Activity in the experiment on BGC-823, in the experiment with KB and with Bel-7402 were 13.51%, 3.64% and 2.63%, respectively. Besides, the EC50 entry in the experiment on HUVEC was “Not Active”. Moreover, in experiment [2], the pIC50 (commonly the negative decadic logarithm of the IC50, by convention in mol/L) is below 4.00.

`Cc1c(O)c(C)c2c(c1O)C(=O)CC(c1ccc(Cl)cc1)O2` (centres undefined): the Activity is listed as 7.65% in the experiment with HL-60, -22.45% with BGC-823, 15.89% in the experiment with KB and -7.1% in the experiment with Bel-7402. In addition, the IC50 result in experiment [1] and in experiment [2] was “Not Active” each time. Moreover, the pEC50 in the experiment with HUVEC was below 4.30.

For the compound `O=c1c(-c2ccc(O)cc2)coc2cc(O)cc(O)c12` [GENISTEIN], the pIC50 in experiment [1] was 4.87.

With `COc1ccc(C2CC(=O)c3c(O)c(C)c(O)c(C)c3O2)cc1` (centres undefined), the Activity in the experiment with HL-60 is reported as 8.52%; in the experiment with BGC-823 it was -28.89%; in the experiment with KB, -11.99%; in the experiment on Bel-7402 it was 15.15%. For the same compound, the pIC50 in experiment [1] and in experiment [2] was below 4.00 throughout. In the experiment with HUVEC, the EC50 result is listed as “Not Active”.

For the compound `Cc1c(O)c(C)c2c(c1O)C(=O)CC(c1ccccc1O)O2` (centres undefined), the Activity in the experiment with HL-60 is -6.47%; in the experiment on BGC-823, -6.69%; in the experiment with KB it was 44.54%; in the experiment on Bel-7402, -1.8%. For the same compound, the pIC50 in experiment [1] was 4.26. The pEC50 in the experiment on HUVEC was below 4.70. The IC50 entry in experiment [2] is on record as “Not Active”.

With `COc1ccc2cc1Oc1ccc(cc1)C[C@H]1c3cc(c(OC)cc3CCN1C)Oc1c(OC)c(OC)cc3c1[C@H](C2)N(C)CC3` [FANCHININ], in experiment [2], the pIC50 was 5.83.

Regarding `Cc1c(O)c(C)c2c(c1O)C(=O)CC(c1ccccc1Cl)O2` (centres undefined), the Activity was found to be 2.94% in the experiment on HL-60, 36.98% in the experiment with BGC-823, 28.63% with KB and 18.7% in the experiment with Bel-7402. Further, the values for the pIC50 in experiment [1] and in experiment [2] were below 4.30 and below 4.70, respectively. Also, in the experiment on HUVEC, the pEC50 is below 4.70.

On to `Cc1c(O)c(C)c2c(c1O)C(=O)CC(c1ccc(O)c(O)c1)O2` (centres undefined) [CYRTOMINETIN], for which the Activity in the experiment on HL-60 was -4.85%; with BGC-823, -19.81%; in the experiment on KB it was 45.3%; in the experiment on Bel-7402, -7.68%. In experiment [1], the pIC50 was below 4.30. Also, the pEC50 in the experiment with HUVEC is below 4.70. Moreover, the IC50 entry in experiment [2] was “Not Active”.

As to `COc1ccccc1C1CC(=O)c2c(O)c(C)c(O)c(C)c2O1` (centres undefined), in experiment [1], the pIC50 is below 4.00. Besides, the pEC50 in the experiment on HUVEC is below 4.70. Besides, in experiment [2], the IC50 entry is reported as “Not Active”.

Regarding `Cc1c(O)c(C)c2c(c1O)C(=O)CC(c1ccsc1)O2` (centres undefined), the Activity with HL-60 is 10.82%; with BGC-823, 50.71%; in the experiment with KB, 16.07%; in the experiment with Bel-7402, 11.59%. Also, the IC50 result in experiment [1] and in experiment [2] was “Not Active” each time. Also, the pEC50 in the experiment with HUVEC was below 4.30.

Take `COc1cc(O)ccc1C1CC(=O)c2c(O)c(C)c(O)c(C)c2O1` (centres undefined): the Activity in the experiment on HL-60 is listed as -1.29%; in the experiment on BGC-823, 4.85%; in the experiment with KB, -18.83%; with Bel-7402 it was 2.54%. The pIC50 was below 3.70 in experiment [1] and below 4.00 in experiment [2]. In the experiment on HUVEC, the pEC50 was below 4.70.

In the case of `Cc1c(O)c(C)c2c(c1O)C(=O)CC(c1ccc(O)cc1)O2` (centres undefined), the Activity in the experiment on HL-60 was -3.37%; with BGC-823 it was -23.52%; with KB, -7.21%; in the experiment on Bel-7402 it was -6.53%. Moreover, the pIC50 in experiment [1] was below 3.70. Moreover, the pEC50 with HUVEC was below 4.70. For the same compound, the IC50 result in experiment [2] was “Not Active”.

Turning to `Cc1c(O)c(C)c2c(c1O)C(=O)CC(c1cccc(O)c1)O2` (centres undefined), the Activity is reported as -4.04% with HL-60, -7.6% in the experiment on BGC-823, 28.66% in the experiment on KB and -5.48% with Bel-7402. Moreover, the pIC50 in experiment [1] is 4.29. Besides, the pEC50 in the experiment with HUVEC is below 4.70. The IC50 result in experiment [2] was “Not Active”.

`Cc1c(O)c(C)c2c(c1O)C(=O)CC(c1ccc([N+](=O)[O-])cc1)O2` (centres undefined): the Activity with HL-60 is recorded as -0.46%; in the experiment with BGC-823, -7.41%; in the experiment with KB it was -9.11%; with Bel-7402, 2.05%. Also, the IC50 result in experiment [1] and in experiment [2] was “Not Active” throughout. The pEC50 in the experiment with HUVEC is below 4.70.

For `Cc1c(O)c(C)c2c(c1O)C(=O)CC(c1ccco1)O2` (centres undefined), the Activity in the experiment on HL-60 is given as 12.96%; in the experiment on BGC-823, -9.68%; in the experiment on KB it was -26.34%; in the experiment with Bel-7402 it was 3.27%. The IC50 result in experiment [1] was “Not Active”. In addition, the pEC50 in the experiment with HUVEC is below 4.70. Also, the pIC50 in experiment [2] is 5.17.

On to `Cc1c(O)c(C)c2c(c1O)C(=O)CC(c1ccccc1[N+](=O)[O-])O2` (centres undefined), for which the Activity in the experiment on HL-60 was -6.16%; with BGC-823, 52%; with KB it was 29.04%; in the experiment on Bel-7402, 27.18%. Moreover, the pIC50 in experiment [1] was below 4.30; in experiment [2] it was 5.00. For the same compound, the negative logarithm of the EC50 (pEC50) in the experiment on HUVEC is below 5.30.
